Experimental data reported in PMC8459971, “Evaluation of the hepatotoxicity of the novel GPR40 (FFAR1) agonist CPL207280 in the rat and monkey” (PLoS ONE, 2021).
“And” between values parts separate entries of the source, which are not always exact repeats. Equal values may be shown once.

Assays:
MRP2 = MRP2 (Homo sapiens, UniProt Q92887); test: Vesicular transport inhibition assay, MRP2; conditions: MRP2; reference inhibitor 200 µM;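 further: membrane vesicles with probe substrate plus 2 mM glutathione, incubated with 4 mM ATP or AMP (AMP as background control), vesicle-retained substrate measured by liquid scintillation counting; ATP 4 mM vs AMP background separates transporter uptake from diffusion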
Chain of MRP2 (Q92887 whole entry, the tested form may be a part): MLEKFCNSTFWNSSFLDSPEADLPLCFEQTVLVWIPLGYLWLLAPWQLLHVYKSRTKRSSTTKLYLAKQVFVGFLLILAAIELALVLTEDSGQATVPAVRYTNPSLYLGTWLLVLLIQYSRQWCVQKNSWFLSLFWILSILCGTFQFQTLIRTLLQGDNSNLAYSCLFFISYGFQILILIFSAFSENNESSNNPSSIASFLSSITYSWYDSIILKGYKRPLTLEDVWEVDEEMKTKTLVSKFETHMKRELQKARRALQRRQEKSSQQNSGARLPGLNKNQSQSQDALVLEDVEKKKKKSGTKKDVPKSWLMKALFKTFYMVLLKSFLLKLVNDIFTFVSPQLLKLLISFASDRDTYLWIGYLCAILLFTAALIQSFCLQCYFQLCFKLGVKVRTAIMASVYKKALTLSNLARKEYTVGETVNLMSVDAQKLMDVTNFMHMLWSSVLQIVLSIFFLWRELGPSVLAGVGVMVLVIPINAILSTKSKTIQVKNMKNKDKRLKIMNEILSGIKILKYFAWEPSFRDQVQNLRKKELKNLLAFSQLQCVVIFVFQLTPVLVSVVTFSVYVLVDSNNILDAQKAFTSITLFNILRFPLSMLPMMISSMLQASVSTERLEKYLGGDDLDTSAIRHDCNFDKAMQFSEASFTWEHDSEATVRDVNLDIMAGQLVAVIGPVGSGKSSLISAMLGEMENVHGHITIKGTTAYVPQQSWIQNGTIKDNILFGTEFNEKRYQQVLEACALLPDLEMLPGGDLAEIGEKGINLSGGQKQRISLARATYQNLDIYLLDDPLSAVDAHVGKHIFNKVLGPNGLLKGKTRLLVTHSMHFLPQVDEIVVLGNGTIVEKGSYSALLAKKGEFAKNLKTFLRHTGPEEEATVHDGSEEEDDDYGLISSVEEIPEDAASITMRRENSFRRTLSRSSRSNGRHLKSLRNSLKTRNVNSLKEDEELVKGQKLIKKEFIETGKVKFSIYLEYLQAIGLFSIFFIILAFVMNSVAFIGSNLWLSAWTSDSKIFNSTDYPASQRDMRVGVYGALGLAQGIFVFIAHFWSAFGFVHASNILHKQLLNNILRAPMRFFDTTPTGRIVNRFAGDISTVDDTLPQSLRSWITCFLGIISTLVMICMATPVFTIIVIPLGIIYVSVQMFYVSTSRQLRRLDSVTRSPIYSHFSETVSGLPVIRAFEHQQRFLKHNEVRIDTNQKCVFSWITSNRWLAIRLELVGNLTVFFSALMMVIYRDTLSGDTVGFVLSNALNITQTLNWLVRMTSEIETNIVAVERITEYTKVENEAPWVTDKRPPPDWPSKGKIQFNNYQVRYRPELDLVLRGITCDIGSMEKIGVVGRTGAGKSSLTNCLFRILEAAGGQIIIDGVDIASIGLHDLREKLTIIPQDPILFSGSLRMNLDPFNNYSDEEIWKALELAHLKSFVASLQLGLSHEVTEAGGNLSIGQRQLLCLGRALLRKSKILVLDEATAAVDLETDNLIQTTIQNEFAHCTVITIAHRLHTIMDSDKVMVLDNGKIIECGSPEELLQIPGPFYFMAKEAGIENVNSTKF
Experimental: (§3) In the vesicular transport inhibition assay (for BSEP, MRP) compounds were incubated with membrane vesicle preparations and the probe substrate. Incubations were carried out in the presence of 4 mM ATP or AMP to distinguish between transporter-mediated uptake and passive diffusion into the vesicles. For MRP2 and MRP3, reactions were carried out in the presence of 2 mM glutathione. Compounds were added to the reaction mixture in 0.75 μL of solvent (1% of the final incubation volume). […] Reactions were initiated by the addition of 25 μL of 12 mM MgATP (or 12 mM AMP in assay buffer as a background control) and preincubated separately. Reactions were quenched by the addition of 200 μL of ice-cold washing buffer and immediate filtration via glass fiber filters mounted on a 96-well plate (filter plate). The filters were washed (5 × 200 μL of ice-cold washing buffer), dried, and the amount of substrate inside the filtered vesicles was determined by liquid scintillation counting.

OAT1 = target: T1, OAT1 (Homo sapiens, UniProt Q4U2R8); test: Uptake transporter inhibition assay, OAT1; conditions: OAT1; reference inhibitor 300 µM;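 further: HEK293FT cells expressing OAT1 or mock, uptake of radiolabeled probe substrate at 37 °C in HBSS pH 7.4 with test compound or solvent, cell lysate read by liquid scintillation counting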
T1 sequence (Q4U2R8 1-563): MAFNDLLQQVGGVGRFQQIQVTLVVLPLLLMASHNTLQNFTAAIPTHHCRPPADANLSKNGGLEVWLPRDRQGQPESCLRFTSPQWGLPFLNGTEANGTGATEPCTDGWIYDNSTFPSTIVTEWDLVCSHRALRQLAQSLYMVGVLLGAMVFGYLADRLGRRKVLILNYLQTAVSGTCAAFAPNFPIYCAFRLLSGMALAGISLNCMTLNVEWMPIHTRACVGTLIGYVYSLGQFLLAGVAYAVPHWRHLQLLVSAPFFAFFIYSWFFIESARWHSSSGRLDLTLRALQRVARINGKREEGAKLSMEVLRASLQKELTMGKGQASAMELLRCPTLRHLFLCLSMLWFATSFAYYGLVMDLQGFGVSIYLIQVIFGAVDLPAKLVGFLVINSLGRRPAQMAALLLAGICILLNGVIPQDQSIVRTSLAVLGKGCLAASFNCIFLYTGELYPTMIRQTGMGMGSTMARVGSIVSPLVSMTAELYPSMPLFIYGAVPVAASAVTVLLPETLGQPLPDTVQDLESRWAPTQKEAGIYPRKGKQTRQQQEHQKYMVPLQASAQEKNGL
Experimental: (§4) For the uptake transporter inhibition assay, cells were washed twice with 100 μL of the appropriate buffer (HK, pH 7.4) for OATP1B1, followed by HBSS (pH 7.4) for (NTCP, OAT1, OAT2v1, OATP1A2, and OATP1B3). Uptake experiments were carried out at 37 ± 1°C in 50 μL of the respective buffer containing the probe substrate and the compound or solvent. […] After the experiment, cells were washed twice with 100 μL of cold appropriate buffer and lysed with 50 μL of 0.1 M NaOH. Radiolabeled probe substrate transport was determined by measuring an aliquot (35 μL) from each well for liquid scintillation counting.

OAT2v1 = target: T2, OAT2v1 (Homo sapiens, UniProt Q9Y694); test: Uptake transporter inhibition assay, OAT2v1; type: cell-based; conditions: OAT2v1; reference inhibitor 300 µM
T2 construct: expressed in transfected cells; host or cells: HEK cells
T2 sequence (Q9Y694 1-546 isoform Q9Y694-2): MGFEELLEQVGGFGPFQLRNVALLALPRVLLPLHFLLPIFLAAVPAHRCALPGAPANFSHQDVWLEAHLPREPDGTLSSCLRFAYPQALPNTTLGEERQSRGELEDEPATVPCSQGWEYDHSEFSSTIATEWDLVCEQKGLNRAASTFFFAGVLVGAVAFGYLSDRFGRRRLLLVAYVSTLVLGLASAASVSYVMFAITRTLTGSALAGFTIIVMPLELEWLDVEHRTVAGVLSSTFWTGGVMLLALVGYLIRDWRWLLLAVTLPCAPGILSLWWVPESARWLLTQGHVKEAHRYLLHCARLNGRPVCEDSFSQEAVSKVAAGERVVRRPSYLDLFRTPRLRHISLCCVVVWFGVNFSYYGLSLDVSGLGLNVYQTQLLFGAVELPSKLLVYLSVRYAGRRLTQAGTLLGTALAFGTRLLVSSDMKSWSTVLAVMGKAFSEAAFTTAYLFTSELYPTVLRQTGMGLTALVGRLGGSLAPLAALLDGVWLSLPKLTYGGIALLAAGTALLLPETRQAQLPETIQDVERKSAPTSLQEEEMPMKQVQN
Experimental: (§1) For the uptake transporter inhibition assay, cells were washed twice with 100 μL of the appropriate buffer (HK, pH 7.4) for OATP1B1, followed by HBSS (pH 7.4) for (NTCP, OAT1, OAT2v1, OATP1A2, and OATP1B3). Uptake experiments were carried out at 37 ± 1°C in 50 μL of the respective buffer containing the probe substrate and the compound or solvent.

[1] = Metabolite profiling, human hepatocytes; type: in vitro ADME; conditions: human hepatocytes, 10 μM CPL207280, 60 min; ND = not detected
Experimental: (§2) Suspensions of cryopreserved human, rat, and monkey hepatocytes were pooled from a minimum of three individuals. All cryopreserved hepatocytes were purchased from a commercial supplier. […] The cell density was 0.5 ×10^6 viable cells/mL. The final DMSO concentration during the incubation was 0.25%. Control incubations were performed in lysed cells to reveal any non-enzymatic degradation. Two control compounds were identified in each species. Samples (50 μL) were removed from the incubation mixture at 0, 10, 20, 40, 60, and 120 min and added to methanol containing an internal standard (100 μL) to stop the reaction. The samples were centrifuged (4000 x g at 4°C for 30 min) and the supernatants at each time point were pooled for analysis by LC MS/MS using Cyprotex generic methods. Following hepatocyte stability assays, the samples were utilized for metabolite profiling. […] Metabolites were characterized using a mass spectrometer comprising Waters Xevo QT of G2-S, Acquity Binary Solvent Manager, Acquity Column Manager, and 2777 Autosampler.

[2] = Metabolite profiling, rat hepatocytes; type: in vitro ADME; conditions: 10 μM CPL207280, 120 min, ND = not detected
Experimental: as §2

MRP4 = target: T3, MRP4 (Homo sapiens, UniProt O15439); test: Vesicular transport inhibition assay, MRP4; conditions: MRP4; reference inhibitor 150 µM;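 further: membrane vesicles with MRP4 incubated with compound and probe substrate plus 4 mM ATP, or AMP as passive-diffusion background, vesicular substrate uptake read by liquid scintillation counting; ATP 4 mM vs AMP background separates transporter uptake from diffusion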
T3 sequence (O15439 1-1325): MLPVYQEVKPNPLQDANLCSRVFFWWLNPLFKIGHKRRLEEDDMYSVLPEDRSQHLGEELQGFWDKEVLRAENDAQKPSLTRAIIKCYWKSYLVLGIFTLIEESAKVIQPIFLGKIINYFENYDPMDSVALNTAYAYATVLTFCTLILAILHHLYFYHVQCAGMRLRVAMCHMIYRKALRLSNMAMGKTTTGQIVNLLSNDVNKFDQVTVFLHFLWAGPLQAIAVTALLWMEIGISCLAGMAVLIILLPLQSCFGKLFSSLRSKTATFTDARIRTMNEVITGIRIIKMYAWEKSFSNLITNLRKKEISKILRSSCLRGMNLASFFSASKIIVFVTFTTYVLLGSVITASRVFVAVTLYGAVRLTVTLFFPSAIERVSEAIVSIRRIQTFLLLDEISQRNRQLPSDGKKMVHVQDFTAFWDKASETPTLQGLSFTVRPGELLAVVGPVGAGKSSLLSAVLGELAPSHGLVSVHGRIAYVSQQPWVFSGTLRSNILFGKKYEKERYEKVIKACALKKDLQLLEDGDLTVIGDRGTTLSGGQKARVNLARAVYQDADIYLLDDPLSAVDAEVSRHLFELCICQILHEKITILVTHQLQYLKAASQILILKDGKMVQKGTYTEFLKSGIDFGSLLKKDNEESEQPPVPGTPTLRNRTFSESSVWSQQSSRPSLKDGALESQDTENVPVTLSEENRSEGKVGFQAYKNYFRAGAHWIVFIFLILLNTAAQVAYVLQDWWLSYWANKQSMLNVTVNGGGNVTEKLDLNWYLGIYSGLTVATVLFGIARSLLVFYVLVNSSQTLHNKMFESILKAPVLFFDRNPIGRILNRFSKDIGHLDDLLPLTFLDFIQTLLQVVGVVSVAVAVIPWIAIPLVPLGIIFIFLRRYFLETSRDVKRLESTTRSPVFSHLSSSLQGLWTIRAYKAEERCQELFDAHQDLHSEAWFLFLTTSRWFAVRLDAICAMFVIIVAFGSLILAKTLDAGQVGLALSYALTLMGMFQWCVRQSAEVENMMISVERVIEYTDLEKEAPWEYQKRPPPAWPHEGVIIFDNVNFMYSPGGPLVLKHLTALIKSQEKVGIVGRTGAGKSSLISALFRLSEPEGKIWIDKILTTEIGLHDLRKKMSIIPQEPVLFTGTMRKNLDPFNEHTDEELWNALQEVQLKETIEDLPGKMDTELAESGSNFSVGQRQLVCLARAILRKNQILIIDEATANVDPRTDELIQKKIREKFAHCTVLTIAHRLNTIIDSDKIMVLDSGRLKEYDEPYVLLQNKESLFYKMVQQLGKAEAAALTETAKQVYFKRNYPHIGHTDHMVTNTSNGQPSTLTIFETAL
Experimental: as §3

MRP3 = MRP3 (Homo sapiens, UniProt O15438); test: Vesicular transport inhibition assay, MRP3; conditions: MRP3; reference inhibitor 150 µM;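 further: membrane vesicles with radiolabelled probe substrate and 2 mM glutathione, 4 mM ATP versus AMP background control, vesicle-trapped substrate quantified by liquid scintillation counting after filtration; ATP 4 mM vs AMP background separates transporter uptake from diffusion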
Chain of MRP3 (O15438 whole entry, the tested form may be a part): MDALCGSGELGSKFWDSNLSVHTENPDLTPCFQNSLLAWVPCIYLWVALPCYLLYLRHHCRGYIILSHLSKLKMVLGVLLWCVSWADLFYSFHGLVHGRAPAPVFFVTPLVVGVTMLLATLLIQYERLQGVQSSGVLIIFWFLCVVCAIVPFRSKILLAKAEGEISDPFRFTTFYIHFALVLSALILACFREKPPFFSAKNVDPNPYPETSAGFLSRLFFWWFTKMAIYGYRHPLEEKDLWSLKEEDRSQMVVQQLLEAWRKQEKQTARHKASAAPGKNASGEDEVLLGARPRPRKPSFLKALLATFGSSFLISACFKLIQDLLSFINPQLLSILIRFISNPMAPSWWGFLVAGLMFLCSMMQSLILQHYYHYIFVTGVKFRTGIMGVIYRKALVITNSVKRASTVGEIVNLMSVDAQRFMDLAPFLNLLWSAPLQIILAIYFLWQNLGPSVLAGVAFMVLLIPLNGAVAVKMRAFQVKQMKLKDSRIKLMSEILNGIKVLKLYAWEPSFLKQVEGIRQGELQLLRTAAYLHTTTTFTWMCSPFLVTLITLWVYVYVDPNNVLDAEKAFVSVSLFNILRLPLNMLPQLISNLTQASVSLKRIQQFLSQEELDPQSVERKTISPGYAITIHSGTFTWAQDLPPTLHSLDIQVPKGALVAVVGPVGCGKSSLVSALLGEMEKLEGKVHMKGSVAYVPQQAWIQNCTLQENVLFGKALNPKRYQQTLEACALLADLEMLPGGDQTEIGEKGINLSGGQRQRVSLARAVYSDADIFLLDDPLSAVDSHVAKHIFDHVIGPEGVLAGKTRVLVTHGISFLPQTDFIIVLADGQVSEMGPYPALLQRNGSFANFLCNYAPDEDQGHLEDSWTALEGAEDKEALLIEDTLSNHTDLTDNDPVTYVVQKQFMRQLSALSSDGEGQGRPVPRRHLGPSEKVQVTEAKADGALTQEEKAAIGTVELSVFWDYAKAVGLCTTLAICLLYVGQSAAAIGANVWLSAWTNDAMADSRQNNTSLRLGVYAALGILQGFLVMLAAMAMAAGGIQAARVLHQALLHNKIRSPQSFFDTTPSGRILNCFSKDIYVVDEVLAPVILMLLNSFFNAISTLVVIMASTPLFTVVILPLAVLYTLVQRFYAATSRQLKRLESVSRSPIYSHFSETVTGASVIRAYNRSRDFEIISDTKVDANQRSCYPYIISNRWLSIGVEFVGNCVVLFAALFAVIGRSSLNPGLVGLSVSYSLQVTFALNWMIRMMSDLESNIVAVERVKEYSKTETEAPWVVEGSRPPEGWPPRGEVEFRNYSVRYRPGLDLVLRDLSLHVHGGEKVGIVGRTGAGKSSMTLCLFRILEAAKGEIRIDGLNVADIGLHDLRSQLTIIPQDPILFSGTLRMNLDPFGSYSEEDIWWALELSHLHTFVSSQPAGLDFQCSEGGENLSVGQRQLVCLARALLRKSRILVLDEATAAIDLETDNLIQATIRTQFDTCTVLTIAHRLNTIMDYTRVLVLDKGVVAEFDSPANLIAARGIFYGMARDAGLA
Experimental: as §3

OATP1A2 = OATP1A2 (Homo sapiens, UniProt P46721); test: Uptake transporter inhibition assay, OATP1A2; conditions: OATP1A2; reference inhibitor 500 µM;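 further: cellular uptake of a radiolabeled probe substrate in HBSS pH 7.4 at 37 °C with test compound or solvent, measured by liquid scintillation counting of cell lysates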
Chain of OATP1A2 (P46721 whole entry): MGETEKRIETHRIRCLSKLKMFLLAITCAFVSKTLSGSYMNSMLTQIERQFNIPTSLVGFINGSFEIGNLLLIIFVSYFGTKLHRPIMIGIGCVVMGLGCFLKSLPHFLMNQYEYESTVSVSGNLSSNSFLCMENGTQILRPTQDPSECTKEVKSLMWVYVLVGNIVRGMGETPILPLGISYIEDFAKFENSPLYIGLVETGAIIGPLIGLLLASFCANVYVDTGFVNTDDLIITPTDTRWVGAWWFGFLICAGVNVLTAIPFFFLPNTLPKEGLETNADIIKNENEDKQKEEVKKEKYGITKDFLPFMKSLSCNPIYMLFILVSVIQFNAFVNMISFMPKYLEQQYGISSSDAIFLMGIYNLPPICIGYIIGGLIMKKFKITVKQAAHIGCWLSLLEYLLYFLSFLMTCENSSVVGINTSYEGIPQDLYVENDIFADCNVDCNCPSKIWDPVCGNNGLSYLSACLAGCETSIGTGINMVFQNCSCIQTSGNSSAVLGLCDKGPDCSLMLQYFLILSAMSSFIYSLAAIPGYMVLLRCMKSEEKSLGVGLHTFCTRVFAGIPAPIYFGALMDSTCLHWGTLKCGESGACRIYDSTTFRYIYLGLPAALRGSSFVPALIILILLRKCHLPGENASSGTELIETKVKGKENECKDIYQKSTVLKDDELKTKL
Experimental: as §4

NTCP = target: T4, NTCP (Homo sapiens, UniProt Q14973); test: Uptake transporter inhibition assay, NTCP; type: cell-based; conditions: NTCP; reference inhibitor 300 µM
T4 construct: expressed in transfected cells; host or cells: HEK cells
T4 sequence (Q14973 1-349): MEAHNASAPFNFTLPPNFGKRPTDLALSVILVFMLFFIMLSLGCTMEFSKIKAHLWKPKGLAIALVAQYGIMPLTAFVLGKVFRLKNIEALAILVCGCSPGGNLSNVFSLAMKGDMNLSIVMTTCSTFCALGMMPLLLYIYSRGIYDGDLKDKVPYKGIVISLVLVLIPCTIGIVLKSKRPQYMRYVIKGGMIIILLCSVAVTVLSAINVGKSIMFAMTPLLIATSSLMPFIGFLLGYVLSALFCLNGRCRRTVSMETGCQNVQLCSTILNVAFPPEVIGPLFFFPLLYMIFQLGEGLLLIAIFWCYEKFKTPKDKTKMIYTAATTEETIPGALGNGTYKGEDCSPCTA
Experimental: as §1

CCc1oc2ccccc2c1C(=O)c1cc(Br)c(O)c(Br)c1 [Benzbromarone]
Accumulation (counts per minute; CPM) with AMP (MRP2): 198 CPM and 209 CPM | Accumulation (counts per minute; CPM) with ATP (MRP2): 183 CPM and 176 CPM | Accumulation (counts per minute; CPM) HEK293FT-MOCK (OAT1): 48 CPM and 31 CPM and 32 CPM and 38 CPM | Accumulation (counts per minute; CPM) HEK293FT-OAT1 (OAT1): 76 CPM and 82 CPM and 74 CPM and 83 CPM

COc1ccc2c(c1)c(CC(=O)O)c(C)n2C(=O)c1ccc(Cl)cc1 [Indomethacin]
Accumulation (counts per minute; CPM) HEK293FT-OAT2v1 (OAT2v1): 503 CPM and 467 CPM and 353 CPM and 367 CPM

CC#CC(CC(=O)OC1OC(C(=O)O)C(O)C(O)C1O)c1ccc(OCC(C)=C(C)C)cc1 (stereo not drawn) [M15]
human % of parent at 60 min [1]: 1.44% | rat % of parent at 120 min [2]: 2.88%

CN(C)C(=O)CCSC(SCCC(=O)O)c1cccc(/C=C/c2ccc3ccc(Cl)cc3n2)c1 (stereo not drawn) [MK571]
Accumulation (counts per minute; CPM) with AMP (MRP4): 1227 CPM and 1197 CPM | Accumulation (counts per minute; CPM) with ATP (MRP4): 1356 CPM and 1304 CPM | Accumulation (counts per minute; CPM) with AMP (MRP3): 193 CPM and 200 CPM and 153 CPM and 106 CPM | Accumulation (counts per minute; CPM) with ATP (MRP3): 299 CPM and 302 CPM and 151 CPM and 183 CPM

O=C1OC(c2ccc(O)c(S(=O)(=O)O)c2)(c2ccc(O)c(S(=O)(=O)O)c2)c2c(Br)c(Br)c(Br)c(Br)c21 [Sulfobromophthalein]
Accumulation (counts per minute; CPM) HEK293FT-MOCK (OATP1A2): 79 CPM and 76 CPM and 86 CPM | Accumulation (counts per minute; CPM) HEK293FT-OATP1A2 (OATP1A2): 880 CPM and 817 CPM and 881 CPM and 862 CPM

C[C@H](CCC(=O)NCCS(=O)(=O)O)[C@H]1CC[C@H]2[C@@H]3[C@H](O)C[C@@H]4C[C@H](O)CC[C@]4(C)[C@H]3CC[C@]12C [TCDC]
Accumulation (counts per minute; CPM) HEK293-NTCP (NTCP): 257 CPM and 289 CPM and 184 CPM and 282 CPM | Accumulation (counts per minute; CPM) HEK293FT-MOCK (NTCP): 24 CPM and 25 CPM and 21 CPM and 27 CPM
